According to patent US10669284B2, “Fused thiazolopyrimidine derivatives as MNKS inhibitors” (LIFEARC, priority 2015, dated 2020):
Read-outs that look alike come from different tables or passages of the source.

What was measured:
[1] = molecular target: T1, Full-length human MNK1 (Homo sapiens, UniProt Q9BUB5, T385D); experiment: MNK1 biochemical IC50 assay (Caliper Mobility Shift Assay); conditions: read-out: P(IC50) MNK1 (converted)
T1 construct: GST (N); purchased Carna Biosciences 02-145; host or cells: baculovirus expression system
T1 sequence (Q9BUB5 1-424 isoform Q9BUB5-2 T344D): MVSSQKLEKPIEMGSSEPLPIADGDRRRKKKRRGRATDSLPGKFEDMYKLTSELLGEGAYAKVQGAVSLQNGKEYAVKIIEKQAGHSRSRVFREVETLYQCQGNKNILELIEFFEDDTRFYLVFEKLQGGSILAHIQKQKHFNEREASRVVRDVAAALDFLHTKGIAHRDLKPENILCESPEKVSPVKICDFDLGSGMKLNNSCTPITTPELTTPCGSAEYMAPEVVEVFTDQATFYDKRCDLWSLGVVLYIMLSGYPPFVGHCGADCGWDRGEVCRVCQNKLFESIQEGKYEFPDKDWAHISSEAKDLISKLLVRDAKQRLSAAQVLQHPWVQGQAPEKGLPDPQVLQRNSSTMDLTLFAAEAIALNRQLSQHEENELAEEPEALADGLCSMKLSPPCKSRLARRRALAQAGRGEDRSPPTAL
Text: (§1) The phosphorylated peptide product and unphosphorylated peptide substrate were detected using a Caliper Mobility Shift Assay using the Caliper LabChip EZ Reader II.
(§2) The Caliper Mobility Shift Assay technology is based on the utilisation of a microfluidic chip to measure the conversion of a fluorescent non-phosphorylated peptide substrate to phosphorylated product by electrophoresis separation of substrate and product and detection via Laser-induced fluorescence. The LabChip EZ Reader software calculates the relative heights of substrate and product peaks and reports the peak ratio (Product peak(P) divided by the sum of Product peak(P) and Substrate peak(S)). The percent-conversion is calculated as 100×[(P/(P+S)]. All assays were set up to run in the linear phase with a maximum of 10 percent substrate conversion.
(§3) These were N-terminal GST fusion proteins expressed in baculovirus expression system and purified by glutathione sepharose affinity chromatography. […] All other assay reagents were sourced from Sigma.
Compounds were serially diluted in DMSO to generate a 10-point half log dilution curve with a final top concentration of 100 uM in the assay. […] Compounds were pre-incubated with enzyme and peptide in reaction buffer for 30 mins prior to addition of ATP to initiate the reaction. Final assay concentrations were 3 nM MNK1, 2 uM peptide substrate, 50 uM ATP, 50 mM Hepes pH 7.0, 0.01% BSA, 10 mM MgCl2, 1 mM dithiothrietol.
(§4) The assay incubation times were adjusted depending on the concentration of ATP used. Assays were performed at low (50 uM) and high (1 mM) ATP. The low ATP values were selected to run at Km conditions for the standard assay to allow relative potencies to be compared across other kinases. The high ATP concentration was selected as representative of cellular ATP concentrations, and for an indication of ATP competition, where a significant shift (greater than half log) in apparent potency would be expected compared to Km conditions. All IC50 values reported are the average of at least two independent experiments.

[2] = molecular target: T2, Full-length human MNK2 (Homo sapiens, UniProt Q9HBH9, T379D); experiment: MNK2 biochemical IC50 assay (Caliper Mobility Shift Assay)
T2 construct: GST (N); purchased Carna Biosciences 02-146; host or cells: baculovirus expression system
T2 sequence (Q9HBH9 whole entry T379D): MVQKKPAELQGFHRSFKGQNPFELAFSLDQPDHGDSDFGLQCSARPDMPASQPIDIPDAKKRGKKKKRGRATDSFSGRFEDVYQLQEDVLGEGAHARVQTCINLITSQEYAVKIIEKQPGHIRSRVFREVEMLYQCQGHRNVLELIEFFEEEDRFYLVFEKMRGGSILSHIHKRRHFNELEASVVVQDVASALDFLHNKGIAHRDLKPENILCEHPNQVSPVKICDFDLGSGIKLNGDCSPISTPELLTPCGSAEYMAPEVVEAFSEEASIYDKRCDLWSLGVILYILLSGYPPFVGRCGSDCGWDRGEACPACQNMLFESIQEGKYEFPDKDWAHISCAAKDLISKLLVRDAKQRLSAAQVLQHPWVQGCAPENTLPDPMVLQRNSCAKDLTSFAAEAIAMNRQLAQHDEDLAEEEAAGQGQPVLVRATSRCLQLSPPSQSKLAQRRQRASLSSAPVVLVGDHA
Text: as §1, §2, §3, §4
Reactions were performed as above using 10 nM MNK2 in the assay. Standard assays contained 50 uM ATP and high concentration ATP assays contained 1 mM ATP. […] All other conditions were the same.

[3] = system: phosphorylation of eIF4E at ser209 in MV4.11 cell line; experiment: MNK cellular activity phospho-eIF4E detection assay (Alphascreen Surefire); format: cell-based; conditions: Homo sapiens
Method: The assay detection is based on the formation of sandwich antibody complexes coupled to donor and acceptor beads. Excitation at 680 nm causes the transfer of a singlet oxygen species between donor and acceptor beads when they are in close proximity by binding to the analyte ([…]), which results in the emission of light at 520-620 nm.
Cells were then lysed and the Alphascreen Surefire protocol followed according to manufacturer's recommendations. 8 ul Acceptor beads (1:50 dilution in kit activation buffer) was added to lysate, shaken 150 rpm for 2 min and incubated for 1.5 hr at room temperature. 3 ul Donor beads (1:20 dilution in kit dilution buffer) were then added, shaken 150 rpm for 2 min and incubated for a further 1.5 hr at room temperature after which the plates were read on Pherastar FS using Alphascreen optic module.
Data were normalised relative to untreated DMSO only controls and curves repeated in duplicate within experiments. Data reported are averages of at least 2 independent experiments.

[4] = read-out: P(IC50) MNK2 (converted)
[5] = MV4.11 cell line, phospho-eIF4E (ser209) Alphascreen Surefire, read-out: P(IC50) elF4E (converted)

IC50 [1] [µM]	IC50 [2, 4] [µM]	IC50 [3, 5] [µM]	SMILES	IC50 [2] [µM]	IC50 ([3]; MV4-11, read-out: P(IC50) elF4E) [µM]
0.0631	0.0631	0.1	O=C(NCC1CCNCC1)c1nc2c(Nc3ccc(F)cc3OC(CF)CF)ncnc2s1 [Example 52, 7-[4-fluoro-2-[2-fluoro-1-(fluoromethyl)ethoxy]anilino]-N-(4-piperidylmethyl)thiazolo[5,4-d]pyrimidine-2-carboxamide]	–	–
0.0126	0.0158	0.0158	C[C@@H]1Cc2ccccc2N1c1ncnc2sc(C(=O)NCC3CCNCC3)nc12 [Example 127, (R)-7-(2-Methylindolin-1-yl)-N-(piperidin-4-ylmethyl)thiazolo[5,4-d]pyrimidine-2-carboxamide]	–	–
0.01	0.00398	0.00501	CC1(C)CN(c2ncnc3sc(C(=O)NCCCO)nc23)c2ccccc21 [Example 163]	–	–
0.0398	0.0316	0.0501	CC1Cc2ccccc2N1c1ncnc2sc(C(=O)NC3CCOCC3)nc12 (stereo not drawn) [Example 122, 7-(2-Methylindolin-1-yl)-N-tetrahydropyran-4-yl-thiazolo[5,4-d]pyrimidine-2-carboxamide]	–	–
0.02	0.0126	0.0794	CNCCCNC(=O)c1nc2c(N3c4ccccc4C[C@H]3C)ncnc2s1 [Example 128, N-[3-(methylamino)propyl]-7-[(2R)-2-methylindolin-1-yl]thiazolo[5,4-d]pyrimidine-2-carboxamide]	–	–
0.0251	0.0126	0.02	O=C(NC1CCOCC1)c1nc2c(N3CC4(CCCC4)c4ccccc43)ncnc2s1 [Example 41, 7-(Spiro[cyclopentane-1,3′-indol]-1′(2′H)-yl)-N-(tetrahydro-2H-pyran-4-yl)[1,3]thiazolo[5,4-d]pyrimidine-2-carboxamide]	–	–
0.794	0.398	0.316	CO[C@@H]1CCCC[C@H]1Oc1cc(F)ccc1Nc1ncnc2sc(C(=O)NCCCN(C)C)nc12 [Example 20, N-[3-(dimethylamino)propyl]-7-[4-fluoro-2-[(1R,2R)-2-methoxycyclohexoxy]anilino]thiazolo[5,4-d]pyrimidine-2-carboxamide]	–	–
0.00631	0.00501	0.00794	CC1(C)CN(c2ncnc3sc(C(=O)NC4CCNCC4)nc23)c2ccccc21 [Example 162]	–	–
0.2	0.158	0.251	CN1CCC(CNC(=O)c2nc3c(N4CCc5cccc(F)c54)ncnc3s2)CC1 [Example 93, 7-(7-fluoroindolin-1-yl)-N-[(1-methyl-4-piperidyl)methyl]thiazolo [5,4-d]pyrimidine-2-carboxamide]	–	–
0.0398	0.02	0.1	OCc1nc2c(N3CCc4cc(F)ccc43)ncnc2s1 [Example 81, [7-(5-Fluoroindolin-1-yl)thiazolo[5,4-d]pyrimidin-2-yl]methanol]	–	–
0.00794	0.00501	0.00631	O=C(NCC1CCNCC1)c1nc2c(N3CC(CCO)c4ccccc43)ncnc2s1 (stereo not drawn) [Example 136]	–	–
0.0126	0.00501	0.0158	O=C(NC1CC1)c1nc2c(N3CCc4ccccc43)ncnc2s1 [Example 99, N-cyclopropyl-7-indolin-1-yl-thiazolo[5,4-d]pyrimidine-2-carboxamide]	–	–
1	0.794	0.794	O=C(NCC1CCNCC1)c1nc2c(N3CCOc4cc(F)ccc43)ncnc2s1 [Example 56, 7-(7-fluoro-2,3-dihydro-1,4-benzoxazin-4-yl)-N-(4-piperidylmethyl)thiazolo[5,4-d]pyrimidine-2-carboxamide]	–	–
0.158	0.126	0.0631	CC(C)Oc1cc(F)ccc1Nc1ncnc2sc(C(=O)NCCN(C)C)nc12 [Example 39, N-[2-(dimethylamino)ethyl]-7-{[4-fluoro-2-(propan-2-yloxy)phenyl]amino}[1,3]thiazolo[5,4-d]pyrimidine-2-carboxamide]	–	–
0.0158	0.02	0.0316	CN1CCC(NC(=O)c2nc3c(N4CCc5cc([N+](=O)[O-])ccc54)ncnc3s2)CC1 [Example 45, N-(1-methylpiperidin-4-yl)-7-(5-nitro-2,3-dihydro-1H-indol-1-yl)[1,3]thiazolo[5,4-d]pyrimidine-2-carboxamide]	–	–
0.0158	0.0158	0.01	CC(C)(O)CC1CN(c2ncnc3sc(C(=O)NCC4CCNCC4)nc23)c2ccccc21 (stereo not drawn) [Example 142]	–	–
0.0316	0.0316	0.158	CC(C)(O)c1nc2c(N3CCc4cc(F)ccc43)ncnc2s1 [Example 82, 2-[7-(5-Fluoroindolin-1-yl)thiazolo[5,4-d]pyrimidin-2-yl]propan-2-ol]	–	–
0.02	0.0158	0.0251	C[C@H]1Cc2ccccc2N1c1ncnc2sc(C(=O)NC3CCNCC3)nc12 [Example 132, 7-[(2S)-2-methylindolin-1-yl]-N-(4-piperidyl) thiazolo[5,4-d]pyrimidine-2-carboxamide]	–	–
0.00501	0.00631	0.0631	NCCC1CN(c2ncnc3sc(C(=O)NC4CCOCC4)nc23)c2ccccc21 (stereo not drawn) [Example 111, 7-[3-(2-aminoethyl)indolin-1-yl]-N-tetrahydropyran-4-yl-thiazolo[5,4-d]pyrimidine-2-carboxamide]	–	–
0.0631	0.0251	0.0794	Cc1ccc2c(c1)CCN2c1ncnc2sc(C(=O)NCC3CCNCC3)nc12 [Example 170, 7-(5-Methylindolin-1-yl)-N-(4-piperidylmethyl)thiazolo[5,4-d]pyrimidine-2-carboxamide]	–	–
0.1	0.0794	0.0501	CN(C)CCC1CN(c2ncnc3sc(C(=O)NC4CCOCC4)nc23)c2ccccc21 (stereo not drawn) [Example 152, 7-[3-[2-(dimethylamino)ethyl]-indolin-1-yl]-N-tetrahydropyran-4-yl-thiazolo[5,4-d]pyrimidine-2-carboxamide]	–	–
0.158	0.2	0.631	CC1(C)CN(C(=O)c2nc3c(N4CCc5ccccc54)ncnc3s2)CCO1 [Example 102, (2,2-dimethylmorpholin-4-yl)-(7-indolin-1-ylthiazolo[5,4-d]pyrimidin-2-yl)methanone]	–	–
0.00794	0.00631	0.00501	CC(C)(O)CC1CN(c2ncnc3sc(C(=O)NCC4CCNCC4)nc23)c2ccc(F)cc21 (stereo not drawn) [Example 143]	–	–
0.0316	0.02	0.0316	N#Cc1ccc2c(c1)CCN2c1ncnc2sc(C(=O)NC3CCOCC3)nc12 [Example 42, 7-(5-cyano-2,3-dihydro-1H-indol-1-yl)-N-(tetrahydro-2H-pyran-4-yl)[1,3]thiazolo[5,4-d]pyrimidine-2-carboxamide]	–	–
0.0501	0.0501	0.1	O=C(NC1CCOCC1)c1nc2c(N3CC(CCN4CCCC4)c4ccccc43)ncnc2s1 (stereo not drawn) [Example 153, 7-[3-(2-pyrrolidin-1-ylethyl)indolin-1-yl]-N-tetrahydropyran-4-yl-thiazolo[5,4-d]pyrimidine-2-carboxamide]	–	–
0.0316	0.0158	0.126	CNCCC1CN(c2ncnc3sc(C(=O)NC4CCOCC4)nc23)c2ccccc21 (stereo not drawn) [Example 115, 7-[3-[2-(Methylamino)ethyl]indolin-1-yl]-N-tetrahydropyran-4-yl-thiazolo[5,4-d]pyrimidine-2-carboxamide]	–	–
0.0126	0.0158	0.02	CC1(CCO)CN(c2ncnc3sc(C(=O)NCC4CCNCC4)nc23)c2ccccc21 (stereo not drawn) [Example 144]	–	–

SMILES	IC50 [1] [µM]	IC50 [2, 4] [µM]	IC50 [3, 5] [µM]	IC50 [2] [µM]	IC50 ([3]; MV4-11, read-out: P(IC50) elF4E) [µM]
CC1(C)CN(c2ncnc3sc(C(=O)NCC4CCNCC4)nc23)c2ccccc21 [Example 161]	0.00316	–	–	0.00251	0.00316
